The results in this text go back to article PMC4504005, “Structural Basis for Receptor Activity-Modifying Protein-Dependent Selective Peptide Recognition by a G Protein-Coupled Receptor” (Molecular cell, 2015).

The target in data set [1] is T1, MBP-RAMP1 ECD-(GSA)3-CLR ECD-H6 (Homo sapiens, UniProt O60894+Q16602).
T1 construct: made in house; host or cells: E. coli (co-expressed with DsbC)
Put plainly: Competition AlphaScreen, CGRP receptor ECD complex. The settings on record: for binding of swap peptide: competition AlphaScreen, Figures 6E-6G, 100 nM protein, 100 nM biotin-CGRP. It counts as binding. From the text: (§1) Plasmid construction, mutagenesis, protein expression, purification, and the AlphaScreen peptide-binding assay were as previously described with minor modifications to the AlphaScreen assay ([Hill and Pioszak, 2013]; [Moad and Pioszak, 2013]). Synthetic peptides were from RS Synthesis, Bachem, or were synthesized in-house. Details are in Supplemental Experimental Procedures.
(§2) Supplemental Experimental Procedures
(§3) Plasmid construction and protein production and characterization. Bacterial pETDuet1 […]
(§4) numbers indicated) fusion proteins co-expressed with DsbC were constructed using the Gibson Assembly cloning method with Gibson Assembly master mix (New England […]
(§5) 2014). Site directed mutagenesis was performed with the QuikChange II kit (Agilent) or using the Gibson Assembly method. Primer sequences are available upon request. All constructs were verified by automated DNA sequencing.
(§6) The tethered ECD fusion proteins were expressed in E. coli, purified, and characterized for peptide binding with an AlphaScreen peptide binding assay as previously described (Moad and Pioszak, 2013), except that the AlphaScreen competition assays also included 0.3% (v/v) Triton X-100 in the reaction buffer. Triton X-100 […]
(§7) reactions in which the donor and acceptor beads were brought together by a Biotin-(Gly)6-(His)6 peptide. The binding experiments were conducted at least three times with each independent experiment performed with duplicate samples. pIC50 values are stated as the mean of the replicate independent experiments ± S.E.M. Although slight variation […]
(§8) Peptides. […]

Data set [2] has as its target T2, MBP-RAMP2 ECD [L106R]-(GSA)3-CLR ECD-H6 (Homo sapiens, UniProt O60895+Q16602, L106R).
T2 construct: MBP-hRAMP2.55-140 [L106R]-(Gly-; Ser-Ala)3-hCLR.29-144-H6 proteins; made in house; host or cells: E. coli (co-expressed with DsbC)
Kind of data set: Competition AlphaScreen, AM1 receptor ECD complex [L106R]. It counts as binding. To be noted: for binding of swap peptide: competition AlphaScreen, Figures 6H-6J.
Description: as §1, §2, §3, §4, §5, §6, §7, §8

Data set [3] deals with MBP-hRAMP1.24-111-(Gly-Ser-Ala)3-hCLR.29-144-H6. Kind of data set: Apparent aggregation in AlphaScreen competition assay, RAMP1-(GSA)3-CLR protein. The settings on record: reaction buffer with 0.3% (v/v) Triton X-100, which minimized but did not completely prevent it; data not shown. In kind it is physicochemical, human.
Description: as §2, §3
(§9) numbers indicated) fusion proteins co-expressed with DsbC were constructed using the Gibson Assembly cloning method with Gibson Assembly master mix (New England Biolabs). Plasmids for expression of tagged full-length CLR and RAMP1 or -2 receptors in mammalian cells were previously described (Barwell et al., 2010; Watkins et al., 2014). Site directed mutagenesis was performed with the QuikChange II kit (Agilent) or using the Gibson Assembly method. Primer sequences are available upon request. All constructs were verified by automated DNA sequencing.
as §6
Ser-Ala)3-hCLR.29-144-H6 proteins (data not shown).
CGRP analog prevented it from fully competing the binding signal to background levels […]
receptor crystallization construct are likely a bit higher than the true values. Competitor
On the technique in general: Bead proximity is the source of the signal in Alpha formats.

Data set [4] addresses T3, MBP-RAMP2 ECD-(GS)5-CLR ECD-H6 (WT RAMP2 ECD-CLR ECD fusion) (Homo sapiens, UniProt O60895+Q16602).
T3 construct: MBP-hRAMP2.55-140-(Gly-Ser-Ala)3-hCLR.29-144-H6; made in house; host or cells: E. coli
Kind of data set: Competition AlphaScreen, WT RAMP2 ECD-CLR ECD fusion. To be noted: text (Fig S1C), approximate. In kind it is binding.
Description: as §1, §2, §3, §9, §6

The mark [5] stands for this setting: 100 nM protein, 100 nM biotin-AM.
[6] abbreviates: Figure 6I, 100 nM protein, 100 nM biotin-AM, 0.3% Triton X-100, mean ± SEM, at least three independent experiments in duplicate, read-out: pIC50 (converted).

Read-outs that look alike come from different tables or passages of the source. Ends that are not written are not given here.

Take “AM(37–52)NH2 [Y52F]: C-terminal residue swap of minimal ECD complex-binding AM peptide”: the “binding of swap peptide” value is listed as “did not gain increased affinity for the CGRP receptor ECD complex” in data set [1] and “exhibited significantly diminished binding to the AM1 receptor ECD complex” in data set [2] (setting [5]).
As for DKDNVAPRSKISPQGY-NH2 [AM(37–52)], the IC50 in data set [2] (Figure 6J, 100 nM protein, 100 nM biotin-AM, 0.3% Triton X-100, mean ± SEM, at least three independent experiments in duplicate, read-out: pIC50 (converted)) was 10 µM.
Consider FVPTDVGPFAY-NH2 [CGRPmut [F37Y]], for which the “binding of swap peptide” value in data set [1] was “retained CGRP receptor ECD complex binding”; in data set [2] (setting [5]), “gained the ability to bind the AM1 receptor ECD complex as strongly as AM”. Moreover, the IC50 in data set [2] (setting [6]) was 16.2 µM.
Compound `CC(C)[C@H](NC(=O)[C@H](CC(=O)O)NC(=O)[C@@H](NC(=O)[C@@H]1CCCN1C(=O)[C@@H](NC(=O)[C@@H](N)Cc1ccccc1)C(C)C)[C@@H](C)O)C(=O)NCC(=O)N1CCC[C@H]1C(=O)N[C@@H](Cc1ccccc1)C(=O)N[C@@H](C)C(=O)N[C@@H](Cc1ccccc1)C(N)=O` [CGRPmut] had an IC50 in data set [1] of 0.457 µM. For the same compound, the apparent aggregation entry in data set [3] is “apparent aggregation”.
With `CC[C@H](C)[C@H](NC(=O)[C@H](CCC(N)=O)NC(=O)[C@H](Cc1c[nH]cn1)NC(=O)[C@H](C)NC(=O)[C@H](CC(C)C)NC(=O)[C@H](CCCCN)NC(=O)[C@H](CCC(N)=O)NC(=O)[C@@H](NC(=O)[C@@H](N)[C@@H](C)O)C(C)C)C(=O)N[C@@H](Cc1ccc(O)cc1)C(=O)N[C@@H](CCC(N)=O)C(=O)N[C@@H](Cc1ccccc1)C(=O)N[C@H](C(=O)N[C@@H](CC(=O)O)C(=O)N[C@@H](CCCCN)C(=O)N[C@@H](CC(=O)O)C(=O)N[C@@H](CCCCN)C(=O)N[C@@H](CC(=O)O)C(=O)N[C@@H](CC(N)=O)C(=O)N[C@H](C(=O)N[C@@H](C)C(=O)N1CCC[C@H]1C(=O)N[C@@H](CCCNC(=N)N)C(=O)N[C@@H](CO)C(=O)N[C@@H](CCCCN)C(=O)N[C@H](C(=O)N[C@@H](CO)C(=O)N1CCC[C@H]1C(=O)N[C@@H](CCC(N)=O)C(=O)NCC(=O)N[C@@H](Cc1ccc(O)cc1)C(N)=O)[C@@H](C)CC)C(C)C)[C@@H](C)O` [AM(22-52)NH2], the IC50 is 5 to 15 µM in data set [2] (AlphaScreen competition, text (Figs S1C, S1H), approximate, read-out: IC50); 12 µM in data set [2] (Figure 6H, 100 nM protein, 100 nM biotin-AM, 0.3% Triton X-100, mean ± SEM, at least three independent experiments in duplicate, read-out: pIC50 (converted)); 14.5 µM in data set [2] (setting [6]); 5 to 15 µM in data set [4].
